Data reported in ChEMBL document CHEMBL3991601, “The target landscape of clinical kinase drugs” (Science, 2017).
Activity calls are given as the source filed them.
Also: in the data inactive means no Kd found up to 30 µM.

Each compound was assayed against Misshapen-like kinase 1 (Homo sapiens, UniProt Q8N4C8).
Sequence of Misshapen-like kinase 1 (Q8N4C8 whole entry): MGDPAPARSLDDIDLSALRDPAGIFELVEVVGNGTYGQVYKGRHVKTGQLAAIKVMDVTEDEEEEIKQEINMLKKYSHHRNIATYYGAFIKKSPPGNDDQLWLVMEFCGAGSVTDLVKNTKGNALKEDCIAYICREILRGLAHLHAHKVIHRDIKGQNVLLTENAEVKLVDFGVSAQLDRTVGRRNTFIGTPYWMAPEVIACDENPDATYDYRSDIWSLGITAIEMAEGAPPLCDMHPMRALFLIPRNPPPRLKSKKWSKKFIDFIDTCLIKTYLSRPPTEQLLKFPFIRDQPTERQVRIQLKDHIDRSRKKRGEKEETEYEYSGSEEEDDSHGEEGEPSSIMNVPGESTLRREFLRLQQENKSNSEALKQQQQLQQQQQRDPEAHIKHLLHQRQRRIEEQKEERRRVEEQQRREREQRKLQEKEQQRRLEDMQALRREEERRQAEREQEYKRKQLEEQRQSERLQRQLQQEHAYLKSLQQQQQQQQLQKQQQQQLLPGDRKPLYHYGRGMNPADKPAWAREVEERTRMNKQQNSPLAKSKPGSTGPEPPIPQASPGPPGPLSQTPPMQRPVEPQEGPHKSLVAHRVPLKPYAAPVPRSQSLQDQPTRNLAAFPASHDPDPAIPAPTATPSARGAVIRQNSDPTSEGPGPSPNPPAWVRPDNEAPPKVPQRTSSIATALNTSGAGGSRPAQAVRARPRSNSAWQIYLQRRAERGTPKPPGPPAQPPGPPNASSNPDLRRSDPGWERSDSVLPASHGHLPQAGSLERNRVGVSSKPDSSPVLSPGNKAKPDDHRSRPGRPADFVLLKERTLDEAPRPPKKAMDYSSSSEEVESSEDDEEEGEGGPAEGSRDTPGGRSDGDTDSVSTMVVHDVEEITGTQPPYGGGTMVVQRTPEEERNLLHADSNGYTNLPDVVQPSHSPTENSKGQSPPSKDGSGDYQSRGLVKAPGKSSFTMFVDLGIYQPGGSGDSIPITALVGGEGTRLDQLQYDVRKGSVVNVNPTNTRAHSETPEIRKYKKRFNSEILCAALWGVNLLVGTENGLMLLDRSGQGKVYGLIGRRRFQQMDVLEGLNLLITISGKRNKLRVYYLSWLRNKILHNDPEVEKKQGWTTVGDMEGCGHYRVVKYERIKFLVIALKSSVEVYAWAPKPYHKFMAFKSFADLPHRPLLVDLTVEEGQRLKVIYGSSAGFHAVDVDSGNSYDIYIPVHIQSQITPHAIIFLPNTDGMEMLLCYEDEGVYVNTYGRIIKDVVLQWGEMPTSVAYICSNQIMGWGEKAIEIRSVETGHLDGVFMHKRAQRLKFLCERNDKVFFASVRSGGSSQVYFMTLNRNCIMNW
With `COc1cc(N2CCC(N3CCN(C)CC3)CC2)ccc1Nc1ncnc(Nc2ccccc2S(=O)(=O)C(C)C)n1` [ASP-3026] the Kd was > 30 µM (inactive).
For `COc1ccc(-c2ccc3c(N4CCOC[C@@H]4C)nc(N4CCOC[C@@H]4C)nc3n2)cc1CO` [AZD-8055], the Kd was > 30 µM (inactive).
For `COC(=O)N[C@@H](C)CNc1nccc(-c2cn(C(C)C)nc2-c2cc(Cl)cc(NS(C)(=O)=O)c2F)n1` [ENCORAFENIB], the Kd was > 30 µM (inactive).
In the case of `O=C1NC(=O)/C(=C/c2ccc3nccc(-c4ccncc4)c3c2)S1` [GSK-1059615], the Kd is reported as > 30 µM (inactive).
`COC(=O)[C@@]1(O)C[C@H]2O[C@]1(C)n1c3ccccc3c3c4c(c5c6ccccc6n2c5c31)C(=O)NC4` [K-252A] was tested, and the Kd was > 30 µM (inactive).
In the case of `Cc1c(F)cc(C(=O)NC2CC2)cc1-c1ccc(C(=O)NCC(C)(C)C)cn1` [LOSMAPIMOD], the Kd is reported as > 30 µM (inactive).

The compounds below were run against T1, Dual specificity protein kinase TTK (Homo sapiens, UniProt P33981).
T1 sequence (P33981 whole entry): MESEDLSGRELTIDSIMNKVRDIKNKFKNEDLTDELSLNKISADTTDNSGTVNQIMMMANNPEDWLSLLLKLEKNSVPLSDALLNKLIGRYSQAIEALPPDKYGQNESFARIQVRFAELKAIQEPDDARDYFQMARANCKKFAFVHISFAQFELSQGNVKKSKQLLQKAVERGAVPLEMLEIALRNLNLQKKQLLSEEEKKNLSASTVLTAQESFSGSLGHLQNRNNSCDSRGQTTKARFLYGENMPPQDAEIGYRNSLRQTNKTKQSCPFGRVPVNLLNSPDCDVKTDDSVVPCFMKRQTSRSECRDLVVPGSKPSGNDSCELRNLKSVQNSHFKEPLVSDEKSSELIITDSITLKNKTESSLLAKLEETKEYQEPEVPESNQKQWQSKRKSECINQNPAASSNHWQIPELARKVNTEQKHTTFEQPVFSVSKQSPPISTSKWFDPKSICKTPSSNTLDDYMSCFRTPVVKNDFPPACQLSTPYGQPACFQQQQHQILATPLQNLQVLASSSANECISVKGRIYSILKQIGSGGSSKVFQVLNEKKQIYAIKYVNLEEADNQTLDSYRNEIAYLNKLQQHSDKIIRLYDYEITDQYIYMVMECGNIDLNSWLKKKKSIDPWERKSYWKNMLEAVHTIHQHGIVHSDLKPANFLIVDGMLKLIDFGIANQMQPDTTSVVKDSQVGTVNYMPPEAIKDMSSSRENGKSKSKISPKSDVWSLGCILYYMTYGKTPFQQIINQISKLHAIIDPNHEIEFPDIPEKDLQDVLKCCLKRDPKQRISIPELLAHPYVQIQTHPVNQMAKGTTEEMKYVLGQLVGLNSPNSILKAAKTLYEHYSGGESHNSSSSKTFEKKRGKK
For `COc1cc(N2CCC(N3CCN(C)CC3)CC2)ccc1Nc1ncnc(Nc2ccccc2S(=O)(=O)C(C)C)n1` [ASP-3026], the Kd was > 30 µM (inactive).
With `COc1ccc(-c2ccc3c(N4CCOC[C@@H]4C)nc(N4CCOC[C@@H]4C)nc3n2)cc1CO` [AZD-8055] the Kd was > 30 µM (inactive).
For `COC(=O)N[C@@H](C)CNc1nccc(-c2cn(C(C)C)nc2-c2cc(Cl)cc(NS(C)(=O)=O)c2F)n1` [ENCORAFENIB], the Kd was > 30 µM (inactive).
In the case of `O=C1NC(=O)/C(=C/c2ccc3nccc(-c4ccncc4)c3c2)S1` [GSK-1059615], the Kd is reported as > 30 µM (inactive).
`COC(=O)[C@@]1(O)C[C@H]2O[C@]1(C)n1c3ccccc3c3c4c(c5c6ccccc6n2c5c31)C(=O)NC4` [K-252A] gave a Kd of 0.03 µM.
`Cc1c(F)cc(C(=O)NC2CC2)cc1-c1ccc(C(=O)NCC(C)(C)C)cn1` [LOSMAPIMOD] was tested, and the Kd was > 30 µM (inactive).

These compounds were tested against Cyclin-dependent kinase 17 (Homo sapiens, UniProt Q00537).
Sequence of Cyclin-dependent kinase 17 (Q00537 whole entry): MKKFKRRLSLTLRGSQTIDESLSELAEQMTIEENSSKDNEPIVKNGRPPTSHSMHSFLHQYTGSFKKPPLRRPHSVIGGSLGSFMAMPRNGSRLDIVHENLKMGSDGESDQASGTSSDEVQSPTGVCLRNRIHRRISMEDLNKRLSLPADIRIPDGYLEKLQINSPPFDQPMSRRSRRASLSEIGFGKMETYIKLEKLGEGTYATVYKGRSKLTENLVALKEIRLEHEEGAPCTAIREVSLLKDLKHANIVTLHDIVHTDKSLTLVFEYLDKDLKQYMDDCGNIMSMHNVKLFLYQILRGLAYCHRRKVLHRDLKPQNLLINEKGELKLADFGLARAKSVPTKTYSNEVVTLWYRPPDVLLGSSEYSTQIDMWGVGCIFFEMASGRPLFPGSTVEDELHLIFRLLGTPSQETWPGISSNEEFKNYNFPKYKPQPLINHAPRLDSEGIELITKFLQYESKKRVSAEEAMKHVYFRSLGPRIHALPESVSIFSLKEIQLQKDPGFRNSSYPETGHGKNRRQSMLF
For `COc1cc(N2CCC(N3CCN(C)CC3)CC2)ccc1Nc1ncnc(Nc2ccccc2S(=O)(=O)C(C)C)n1` [ASP-3026], the Kd was > 30 µM (inactive).
`COc1ccc(-c2ccc3c(N4CCOC[C@@H]4C)nc(N4CCOC[C@@H]4C)nc3n2)cc1CO` [AZD-8055] was tested, and the Kd was > 30 µM (inactive).
With `COC(=O)N[C@@H](C)CNc1nccc(-c2cn(C(C)C)nc2-c2cc(Cl)cc(NS(C)(=O)=O)c2F)n1` [ENCORAFENIB] the Kd was > 30 µM (inactive).
`O=C1NC(=O)/C(=C/c2ccc3nccc(-c4ccncc4)c3c2)S1` [GSK-1059615] was tested, and the Kd was > 30 µM (inactive).
For `COC(=O)[C@@]1(O)C[C@H]2O[C@]1(C)n1c3ccccc3c3c4c(c5c6ccccc6n2c5c31)C(=O)NC4` [K-252A], the Kd was > 30 µM (inactive).
In the case of `Cc1c(F)cc(C(=O)NC2CC2)cc1-c1ccc(C(=O)NCC(C)(C)C)cn1` [LOSMAPIMOD], the Kd is reported as > 30 µM (inactive).

The compounds below were run against Choline-phosphate cytidylyltransferase A (Homo sapiens, UniProt P49585).
Sequence of Choline-phosphate cytidylyltransferase A (P49585 whole entry): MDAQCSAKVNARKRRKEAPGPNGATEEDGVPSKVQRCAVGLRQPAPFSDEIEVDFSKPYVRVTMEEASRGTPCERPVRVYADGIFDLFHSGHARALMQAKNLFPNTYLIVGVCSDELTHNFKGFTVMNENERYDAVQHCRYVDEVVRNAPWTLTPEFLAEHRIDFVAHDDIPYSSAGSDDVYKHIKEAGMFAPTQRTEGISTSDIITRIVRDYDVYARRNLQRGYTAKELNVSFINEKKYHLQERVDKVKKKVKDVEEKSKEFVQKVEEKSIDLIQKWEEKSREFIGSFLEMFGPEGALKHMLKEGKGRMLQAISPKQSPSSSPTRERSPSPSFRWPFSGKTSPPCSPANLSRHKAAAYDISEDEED
In the case of `COc1cc(N2CCC(N3CCN(C)CC3)CC2)ccc1Nc1ncnc(Nc2ccccc2S(=O)(=O)C(C)C)n1` [ASP-3026], the Kd is reported as > 30 µM (inactive).
In the case of `COC(=O)N[C@@H](C)CNc1nccc(-c2cn(C(C)C)nc2-c2cc(Cl)cc(NS(C)(=O)=O)c2F)n1` [ENCORAFENIB], the Kd is reported as 0.041 µM.

These compounds were tested against T2, Cyclin-dependent kinase-like 5 (Homo sapiens, UniProt O76039).
T2 sequence (O76039 whole entry): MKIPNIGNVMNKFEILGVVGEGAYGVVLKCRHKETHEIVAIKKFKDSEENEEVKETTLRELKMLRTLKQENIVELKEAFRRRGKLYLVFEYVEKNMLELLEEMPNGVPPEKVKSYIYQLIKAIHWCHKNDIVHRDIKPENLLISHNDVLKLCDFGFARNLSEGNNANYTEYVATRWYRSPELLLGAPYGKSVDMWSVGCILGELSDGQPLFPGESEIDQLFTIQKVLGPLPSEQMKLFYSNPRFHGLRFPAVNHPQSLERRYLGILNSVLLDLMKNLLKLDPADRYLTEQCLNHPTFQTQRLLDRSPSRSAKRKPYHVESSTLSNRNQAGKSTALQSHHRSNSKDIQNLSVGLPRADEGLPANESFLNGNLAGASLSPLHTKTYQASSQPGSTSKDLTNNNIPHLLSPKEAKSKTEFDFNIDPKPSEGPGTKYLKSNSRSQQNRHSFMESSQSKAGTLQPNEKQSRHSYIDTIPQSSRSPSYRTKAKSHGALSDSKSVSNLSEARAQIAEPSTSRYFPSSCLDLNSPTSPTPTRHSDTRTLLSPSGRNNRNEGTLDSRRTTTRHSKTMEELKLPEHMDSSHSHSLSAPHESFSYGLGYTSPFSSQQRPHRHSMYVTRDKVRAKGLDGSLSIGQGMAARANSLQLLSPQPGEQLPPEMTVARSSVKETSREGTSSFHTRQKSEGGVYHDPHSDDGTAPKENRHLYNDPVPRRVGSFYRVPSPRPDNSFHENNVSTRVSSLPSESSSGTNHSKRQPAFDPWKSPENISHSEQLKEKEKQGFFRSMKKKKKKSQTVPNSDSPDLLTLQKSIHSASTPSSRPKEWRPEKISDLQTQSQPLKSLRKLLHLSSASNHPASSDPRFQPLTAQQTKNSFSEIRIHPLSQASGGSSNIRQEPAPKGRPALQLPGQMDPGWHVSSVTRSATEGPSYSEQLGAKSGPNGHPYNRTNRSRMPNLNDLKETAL
`COc1cc(N2CCC(N3CCN(C)CC3)CC2)ccc1Nc1ncnc(Nc2ccccc2S(=O)(=O)C(C)C)n1` [ASP-3026] was tested, and the Kd was > 30 µM (inactive).
For `COC(=O)N[C@@H](C)CNc1nccc(-c2cn(C(C)C)nc2-c2cc(Cl)cc(NS(C)(=O)=O)c2F)n1` [ENCORAFENIB], the Kd was > 30 µM (inactive).
With `O=C1NC(=O)/C(=C/c2ccc3nccc(-c4ccncc4)c3c2)S1` [GSK-1059615] the Kd was > 30 µM (inactive).
In the case of `COC(=O)[C@@]1(O)C[C@H]2O[C@]1(C)n1c3ccccc3c3c4c(c5c6ccccc6n2c5c31)C(=O)NC4` [K-252A], the Kd is reported as > 30 µM (inactive).

What follows are compounds tested against Cyclin-dependent kinase 2 (Homo sapiens, UniProt P24941).
For `COc1cc(N2CCC(N3CCN(C)CC3)CC2)ccc1Nc1ncnc(Nc2ccccc2S(=O)(=O)C(C)C)n1` [ASP-3026], the Kd was > 30 µM (inactive).
For `COc1ccc(-c2ccc3c(N4CCOC[C@@H]4C)nc(N4CCOC[C@@H]4C)nc3n2)cc1CO` [AZD-8055], the Kd was > 30 µM (inactive).
For `COC(=O)N[C@@H](C)CNc1nccc(-c2cn(C(C)C)nc2-c2cc(Cl)cc(NS(C)(=O)=O)c2F)n1` [ENCORAFENIB], the Kd was > 30 µM (inactive).
For `O=C1NC(=O)/C(=C/c2ccc3nccc(-c4ccncc4)c3c2)S1` [GSK-1059615], the Kd was > 30 µM (inactive).
For `Cc1c(F)cc(C(=O)NC2CC2)cc1-c1ccc(C(=O)NCC(C)(C)C)cn1` [LOSMAPIMOD], the Kd was > 30 µM (inactive).

The compounds below were run against Dual specificity protein kinase CLK4 (Homo sapiens, UniProt Q9HAZ1).
Sequence of Dual specificity protein kinase CLK4 (Q9HAZ1 whole entry): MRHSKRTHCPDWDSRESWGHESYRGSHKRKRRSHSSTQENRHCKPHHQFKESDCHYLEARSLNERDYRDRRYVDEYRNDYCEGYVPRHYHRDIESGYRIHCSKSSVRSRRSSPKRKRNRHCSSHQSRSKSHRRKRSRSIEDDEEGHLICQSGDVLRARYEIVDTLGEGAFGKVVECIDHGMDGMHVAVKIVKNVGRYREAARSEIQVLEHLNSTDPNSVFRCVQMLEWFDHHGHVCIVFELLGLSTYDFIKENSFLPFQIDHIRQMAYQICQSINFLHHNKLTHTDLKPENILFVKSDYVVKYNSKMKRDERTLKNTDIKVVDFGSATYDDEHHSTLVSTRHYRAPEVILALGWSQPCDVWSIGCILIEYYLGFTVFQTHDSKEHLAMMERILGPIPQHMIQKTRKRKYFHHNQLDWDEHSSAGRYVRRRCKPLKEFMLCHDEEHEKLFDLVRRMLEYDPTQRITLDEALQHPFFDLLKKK
For `COc1cc(N2CCC(N3CCN(C)CC3)CC2)ccc1Nc1ncnc(Nc2ccccc2S(=O)(=O)C(C)C)n1` [ASP-3026], the Kd was > 30 µM (inactive).
For `COc1ccc(-c2ccc3c(N4CCOC[C@@H]4C)nc(N4CCOC[C@@H]4C)nc3n2)cc1CO` [AZD-8055], the Kd was > 30 µM (inactive).
`COC(=O)N[C@@H](C)CNc1nccc(-c2cn(C(C)C)nc2-c2cc(Cl)cc(NS(C)(=O)=O)c2F)n1` [ENCORAFENIB] was tested, and the Kd was > 30 µM (inactive).
For `COC(=O)[C@@]1(O)C[C@H]2O[C@]1(C)n1c3ccccc3c3c4c(c5c6ccccc6n2c5c31)C(=O)NC4` [K-252A], the Kd was 0.015 µM (active).

What follows are compounds tested against Mitogen-activated protein kinase 14 (Homo sapiens, UniProt Q16539).
Sequence of Mitogen-activated protein kinase 14 (Q16539 whole entry): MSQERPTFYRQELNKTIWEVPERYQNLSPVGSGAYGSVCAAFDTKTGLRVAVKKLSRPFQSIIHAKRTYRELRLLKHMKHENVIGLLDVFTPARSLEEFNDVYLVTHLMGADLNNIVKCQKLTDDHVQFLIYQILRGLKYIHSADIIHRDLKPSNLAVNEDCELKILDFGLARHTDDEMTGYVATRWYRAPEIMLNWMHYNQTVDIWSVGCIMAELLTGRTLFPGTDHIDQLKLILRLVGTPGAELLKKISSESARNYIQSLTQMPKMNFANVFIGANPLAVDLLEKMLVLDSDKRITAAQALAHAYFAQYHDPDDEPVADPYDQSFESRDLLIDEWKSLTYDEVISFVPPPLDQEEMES
With `COc1cc(N2CCC(N3CCN(C)CC3)CC2)ccc1Nc1ncnc(Nc2ccccc2S(=O)(=O)C(C)C)n1` [ASP-3026] the Kd was > 30 µM (inactive).
In the case of `COc1ccc(-c2ccc3c(N4CCOC[C@@H]4C)nc(N4CCOC[C@@H]4C)nc3n2)cc1CO` [AZD-8055], the Kd is reported as > 30 µM (inactive).
In the case of `COC(=O)N[C@@H](C)CNc1nccc(-c2cn(C(C)C)nc2-c2cc(Cl)cc(NS(C)(=O)=O)c2F)n1` [ENCORAFENIB], the Kd is reported as > 30 µM (inactive).
For `O=C1NC(=O)/C(=C/c2ccc3nccc(-c4ccncc4)c3c2)S1` [GSK-1059615], the Kd was > 30 µM (inactive).
`COC(=O)[C@@]1(O)C[C@H]2O[C@]1(C)n1c3ccccc3c3c4c(c5c6ccccc6n2c5c31)C(=O)NC4` [K-252A] was tested, and the Kd was > 30 µM (inactive).

What follows are compounds tested against Guanine nucleotide-binding protein G(i) subunit alpha-2 (Homo sapiens, UniProt P04899).
Sequence of Guanine nucleotide-binding protein G(i) subunit alpha-2 (P04899 whole entry): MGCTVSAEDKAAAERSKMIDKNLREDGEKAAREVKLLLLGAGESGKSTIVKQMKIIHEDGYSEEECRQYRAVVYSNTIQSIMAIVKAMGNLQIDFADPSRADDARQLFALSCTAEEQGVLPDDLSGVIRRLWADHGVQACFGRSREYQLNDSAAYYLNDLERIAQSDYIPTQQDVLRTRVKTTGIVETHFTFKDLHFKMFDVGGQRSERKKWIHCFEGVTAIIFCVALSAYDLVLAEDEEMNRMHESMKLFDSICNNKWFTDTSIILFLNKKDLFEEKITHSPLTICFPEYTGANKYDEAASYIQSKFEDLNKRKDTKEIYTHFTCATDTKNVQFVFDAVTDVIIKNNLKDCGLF
For `COc1cc(N2CCC(N3CCN(C)CC3)CC2)ccc1Nc1ncnc(Nc2ccccc2S(=O)(=O)C(C)C)n1` [ASP-3026], the Kd was > 30 µM (inactive).
`COc1ccc(-c2ccc3c(N4CCOC[C@@H]4C)nc(N4CCOC[C@@H]4C)nc3n2)cc1CO` [AZD-8055] was tested, and the Kd was > 30 µM (inactive).
In the case of `COC(=O)N[C@@H](C)CNc1nccc(-c2cn(C(C)C)nc2-c2cc(Cl)cc(NS(C)(=O)=O)c2F)n1` [ENCORAFENIB], the Kd is reported as > 30 µM (inactive).
In the case of `O=C1NC(=O)/C(=C/c2ccc3nccc(-c4ccncc4)c3c2)S1` [GSK-1059615], the Kd is reported as > 30 µM (inactive).
`Cc1c(F)cc(C(=O)NC2CC2)cc1-c1ccc(C(=O)NCC(C)(C)C)cn1` [LOSMAPIMOD] was tested, and the Kd was > 30 µM (inactive).

These compounds were tested against T3, Long-chain-fatty-acid--CoA ligase 5 (Homo sapiens, UniProt Q9ULC5).
T3 sequence (Q9ULC5 whole entry): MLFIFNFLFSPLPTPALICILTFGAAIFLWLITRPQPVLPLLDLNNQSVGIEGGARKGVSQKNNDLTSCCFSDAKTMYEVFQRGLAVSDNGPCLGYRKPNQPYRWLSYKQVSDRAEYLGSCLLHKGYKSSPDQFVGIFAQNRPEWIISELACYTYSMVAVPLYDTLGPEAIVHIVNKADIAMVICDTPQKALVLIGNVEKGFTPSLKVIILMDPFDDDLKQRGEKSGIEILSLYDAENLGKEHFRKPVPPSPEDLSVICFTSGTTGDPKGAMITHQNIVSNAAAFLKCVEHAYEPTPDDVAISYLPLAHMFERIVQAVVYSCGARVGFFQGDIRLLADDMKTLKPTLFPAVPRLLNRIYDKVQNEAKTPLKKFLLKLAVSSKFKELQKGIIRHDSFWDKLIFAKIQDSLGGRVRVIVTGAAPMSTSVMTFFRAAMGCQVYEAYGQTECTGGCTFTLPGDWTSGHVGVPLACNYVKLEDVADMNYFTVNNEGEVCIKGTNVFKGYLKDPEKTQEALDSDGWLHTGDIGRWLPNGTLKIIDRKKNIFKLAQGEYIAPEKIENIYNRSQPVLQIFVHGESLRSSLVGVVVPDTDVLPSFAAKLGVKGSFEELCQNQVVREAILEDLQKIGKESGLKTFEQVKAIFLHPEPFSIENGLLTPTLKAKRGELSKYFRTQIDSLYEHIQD
In the case of `COC(=O)[C@@]1(O)C[C@H]2O[C@]1(C)n1c3ccccc3c3c4c(c5c6ccccc6n2c5c31)C(=O)NC4` [K-252A], the Kd is reported as > 30 µM (inactive).
`Cc1c(F)cc(C(=O)NC2CC2)cc1-c1ccc(C(=O)NCC(C)(C)C)cn1` [LOSMAPIMOD] showed a Kd of 1.69 µM.
